We go through three compounds from publication PMC10025480 (Frontiers in Pharmacology, 2023).

The target of one assay is 5-HT2B (Homo sapiens, UniProt P41595). Description: SelectScreen cell-based GPCR assay, 5-HT2B. Conditions: 10 µM. From the text:
(§1) Profiling of compound activity versus a select panel of diverse GPCRs was undertaken by ThermoFisher Scientific (United Kingdom) via their SelectScreen cell-based GPCR assay panel. Detailed experimental protocols on this assay platform can be found at (https://www.thermofisher.com/content/dam/LifeTech/migration/en/filelibrary/services/discovery-research/pdfs.par.36410.file.dat/sscg-brochure.pdf). Briefly these assays detect agonist or antagonist activity using cell lines with the GPCR of interest over-expressed, driving the expression of a reporter gene encompassing a mammalian-optimized Beta-lactamase. Test compounds are incubated with the specific cell lines at the defined final concentration for 5 or 16 h (depending on the cell line specifics) before quantification of effect.

The target of the next assay is delta opioid (Homo sapiens, UniProt P41143). Description: SelectScreen cell-based GPCR assay, delta opioid. The settings on record: 10 µM.
Text: as §1

Assay [1] has as its system human vascular smooth muscle preparations. The settings on record: ref Papp et al., 2019; Danahay et al., 2020b; cited from earlier work.
For assay [2] the following is noted: cited from earlier work.
Assay [3] relates to human bronchial smooth muscle. The settings on record: cited from earlier work.

delta opioid, sequence (P41143 whole entry): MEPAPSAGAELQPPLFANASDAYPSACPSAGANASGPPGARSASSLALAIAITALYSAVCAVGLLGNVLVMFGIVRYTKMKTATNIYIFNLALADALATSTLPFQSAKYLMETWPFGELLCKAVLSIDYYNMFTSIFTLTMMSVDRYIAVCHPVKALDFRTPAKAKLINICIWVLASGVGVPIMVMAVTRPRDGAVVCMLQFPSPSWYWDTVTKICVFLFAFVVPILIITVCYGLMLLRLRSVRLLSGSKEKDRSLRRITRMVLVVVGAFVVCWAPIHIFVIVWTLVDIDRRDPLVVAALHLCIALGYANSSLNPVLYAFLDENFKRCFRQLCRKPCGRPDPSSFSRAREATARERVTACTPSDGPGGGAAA
5-HT2B, sequence (P41595 whole entry): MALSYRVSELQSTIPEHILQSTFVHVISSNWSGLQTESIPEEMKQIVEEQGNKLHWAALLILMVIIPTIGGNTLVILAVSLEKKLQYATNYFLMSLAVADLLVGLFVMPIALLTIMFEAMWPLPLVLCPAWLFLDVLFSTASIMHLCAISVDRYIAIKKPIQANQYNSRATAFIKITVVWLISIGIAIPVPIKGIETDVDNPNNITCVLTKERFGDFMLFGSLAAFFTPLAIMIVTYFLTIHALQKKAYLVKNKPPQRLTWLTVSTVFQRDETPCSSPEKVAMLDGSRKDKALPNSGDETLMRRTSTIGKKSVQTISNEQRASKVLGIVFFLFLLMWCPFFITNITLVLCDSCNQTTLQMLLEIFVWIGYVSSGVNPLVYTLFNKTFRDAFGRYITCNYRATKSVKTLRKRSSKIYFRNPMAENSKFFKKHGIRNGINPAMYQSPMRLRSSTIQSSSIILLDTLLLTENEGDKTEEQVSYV

Turning to `COc1ccccc1/C=N/NC(=O)COc1ccc(Cl)cc1C` [Ani9], the “inhibition of 5-HT2B” value on 5-HT2B was at least 50%. In addition, the “inhibition of delta opioid” value against delta opioid is given as at least 50%. As to `CCc1c(C)nc(SCC(=O)Nc2nc(-c3ccc(OC)cc3)cs2)[nH]c1=O` [T16Ainh-A01], the “activity in human vascular smooth muscle preparations” value in assay [1] is listed as “failed to show activity”. With ETX001, in assay [2], the “effect on lung function in vivo” value is “no effect”. Besides, the “effect on freshly isolated human bronchial smooth muscle tone” value in assay [3] is on record as “no effect”.
